Source: patent EP0496162A2, “Peptide inhibitors of RAS-GAP interaction” (MERCK & CO. INC., priority 1990, dated 1992)
Non-standard residues stand in square brackets, D forms with d. Residues, ends and D or L forms follow the SMILES beside them. No end group written: not given here.

Key:
[1] = assay type: physicochemical
Description: (§1) Ras peptides were dissolved in either 100% dimethyl formamide (DMF, American Burdick and Jackson) or 100% dimethyl sulfoxide (DMSO, Fluka UV-spectroscopy grade) at a calculated peptide concentration of 1-4 mM. Following 1 minute in a Sonicor SC-200 bath sonicator at room temperature, the peptide solutions were vortexed, and then centrifuged for 5 minutes at room temperature in an Eppendorf microfuge to remove any undissolved material. 20 µL of the cleared peptide solutions were then added to 80 µL of Buffer D in a dilution series covering a range of peptide concentrations from 0.02 µM up to the maximum solubility limit for each peptide. In each dilution, the solvent concentration was maintained at 20%. These peptides solutions were then centrifuged for 5 minutes at room temperature at 10,000 x g, and the cleared supernatants were divided into 2 parts. One part of each cleared peptide dilution was used in a GAP competition assay: 40 µL was added to a 5 µL solution containing 0.1 mg/mL BSA plus 240 fmol Ha-ras p21-[γ-³²P]GTP. Reactions were initiated upon addition of 5 µL of diluted GAP (10 fmol), and analyzed as described above.
The other portion of the cleared peptide solution was measured spectrophotometrically to determine solubility and concentration of the peptides. Extinction coefficients were determined by measuring the absorbance at 277 nm of 2 peptides whose exact concentrations were quantitated by amino acid analysis. The extinction coefficients for peptide Ras 17-37 dissolved in buffer D/20% DMF or peptide Ras 91-103 (SEQ ID NO:14)dissolved in water/20% DMSO, were 2580 cm⁻¹M⁻¹ and 2230 cm⁻¹ M⁻¹, respectively. These values were used to determine the exact concentration for each peptide used at each point in the competition assay. In addition, peptide solubility was confirmed by comparing the light scattering at 600 nm for each peptide solution measured before and after centrifugation. Only concentrations reflecting 100% solubility were used in the dose response curves, and the maximum concentration used for each peptide competitor indicates the limit of solubility for that peptide.

Ras-GAP interaction = target: T1, Ras-GAP interaction (Bos taurus, UniProt P09851); experiment: Ras-GAP interaction inhibition assay (GAP-stimulated Ras GTPase, charcoal adsorption); assay type: biochemical, bovine; details: concentration of peptide required to reduce GAP stimulated Ras-GTP hydrolysis by 50%; 10 fmol GAP, 240 fmol Ha ras p21-GTP, 4 minutes at 24°C
T1 construct: made in house; host or cells: GAP: E. coli JM109 (plasmid pYO); Ha-Ras: E. coli RRllaci^q (plasmid pRas[Gly12 Ala59])
T1 sequence (P09851 1-1044): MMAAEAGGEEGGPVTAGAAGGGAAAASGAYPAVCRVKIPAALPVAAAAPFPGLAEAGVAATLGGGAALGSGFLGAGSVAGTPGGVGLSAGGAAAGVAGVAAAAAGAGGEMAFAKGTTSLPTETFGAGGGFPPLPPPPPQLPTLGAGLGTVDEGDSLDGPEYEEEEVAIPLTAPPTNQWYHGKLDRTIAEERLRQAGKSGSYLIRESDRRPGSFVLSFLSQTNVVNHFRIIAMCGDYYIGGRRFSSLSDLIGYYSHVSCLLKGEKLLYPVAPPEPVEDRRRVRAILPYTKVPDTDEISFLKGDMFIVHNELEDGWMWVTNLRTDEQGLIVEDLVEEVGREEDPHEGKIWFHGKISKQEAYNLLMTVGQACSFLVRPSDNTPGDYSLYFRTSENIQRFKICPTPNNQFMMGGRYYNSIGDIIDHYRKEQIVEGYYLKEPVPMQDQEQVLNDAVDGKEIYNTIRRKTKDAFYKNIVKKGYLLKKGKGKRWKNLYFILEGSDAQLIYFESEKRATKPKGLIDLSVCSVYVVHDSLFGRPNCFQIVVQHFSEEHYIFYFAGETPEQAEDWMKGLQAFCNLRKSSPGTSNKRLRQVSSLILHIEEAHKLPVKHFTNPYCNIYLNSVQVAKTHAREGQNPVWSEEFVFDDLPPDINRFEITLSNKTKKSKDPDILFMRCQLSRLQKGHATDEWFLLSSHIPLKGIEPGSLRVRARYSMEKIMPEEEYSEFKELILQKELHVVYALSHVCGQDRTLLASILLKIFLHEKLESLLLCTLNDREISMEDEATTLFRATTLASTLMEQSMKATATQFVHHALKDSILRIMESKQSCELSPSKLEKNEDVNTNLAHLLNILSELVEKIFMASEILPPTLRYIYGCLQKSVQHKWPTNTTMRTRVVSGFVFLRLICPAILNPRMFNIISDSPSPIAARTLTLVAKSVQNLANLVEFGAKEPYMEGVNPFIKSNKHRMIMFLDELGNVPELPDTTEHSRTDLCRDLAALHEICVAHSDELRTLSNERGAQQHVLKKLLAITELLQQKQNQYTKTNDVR
Description: The activity of the synthetic peptides of the present invention, as inhibitors of the interaction of ras with GAP was determined in an assay which measures GAP dependent, Ras GTPase activity. Bovine GAP was either purified from fresh bovine brains or recombinantly produced in E. coli. It is understood that the methods of the present invention may utilize either the recombinant full length GAP or the bovine brain derived GAP. In addition, GAP from other species, such as human and mouse, may be substituted for bovine GAP since they share about 95% amino acid homology. Truncated recombinant forms of GAP are also suitable for use in the Ras-GAP interaction assay [Marshall, M.S., et al., (1989), EMBO J., 8, pp1105-1110]. However, for the screening of synthetic peptides for their ability to block the Ras-GAP interaction, the recombinant, full length GAP is preferred.
The Ras protein utilized in the Ras-GAP GTPase assay of the present invention is Harvey ras (Ha-ras). It is understood that other forms of Ras protein are suitable for use in the present invention. Other suitable forms of Ras protein include, but are not limited to, Kirsten Ras, yeast S. cerevisiae RAS, and N-Ras. Furthermore, it is readily apparent to those skilled in the art that any form of Ras protein which is capable of interacting with GAP is suitable for use in the Ras-GAP GTPase assay.
Ras GTPase activity was measured by the charcoal adsorption procedure. Each 50 µL reaction contained 10 fmol purified GAP, 240 fmol Ha ras p21-[γ ³²P] GTP and 1 mg/mL BSA in buffer D. Varying amounts of the competing peptides were added as indicated. Prewarmed reactions (24°C) were initiated by the addition of GAP, then incubated for 4 minutes at 24°C. The reactions were terminated by the addition of 5 volumes of ice cold 5% activated charcoal (Sigma: HCl washed) in 50 mM NaH₂PO₄. GTPase activity was quantitated by measuring the free ³²P-orthophosphate in the cleared supernatant after centrifugation of the charcoal mix. GAP-stimulated Ras GTPase activity in the absence of competitors was 40-60 fmol Ras-GTP hydrolyzed; the 100% control value. In the absence of GAP, GTP hydrolysis was not detectable during the incubation period of the assay. Inhibitors of this assay block GAP-stimulated Ras GTPase without impairing intrinsic Ras GTPase, assayed in the absence of GAP following incubation at 24°C for one hour.
as §1

[2] = target: T2, S. cerevisiae adenylyl cyclase (Ras Dependent, strain FlD reconstituted with purified Ras) (Saccharomyces cerevisiae, UniProt P08678); experiment: Yeast adenylyl cyclase assay, reconstitution of FlD membranes with purified Ras protein; assay type: biochemical; details: part B, FlD membranes with 5 µM purified Ras protein, peptide 10 µM
T2 construct: Since these membranes contain adenylyl cyclase, but are lacking Ras protein; endogenous in cells; host or cells: membranes of S. cerevisiae strain FlD
T2 sequence (P08678 whole entry): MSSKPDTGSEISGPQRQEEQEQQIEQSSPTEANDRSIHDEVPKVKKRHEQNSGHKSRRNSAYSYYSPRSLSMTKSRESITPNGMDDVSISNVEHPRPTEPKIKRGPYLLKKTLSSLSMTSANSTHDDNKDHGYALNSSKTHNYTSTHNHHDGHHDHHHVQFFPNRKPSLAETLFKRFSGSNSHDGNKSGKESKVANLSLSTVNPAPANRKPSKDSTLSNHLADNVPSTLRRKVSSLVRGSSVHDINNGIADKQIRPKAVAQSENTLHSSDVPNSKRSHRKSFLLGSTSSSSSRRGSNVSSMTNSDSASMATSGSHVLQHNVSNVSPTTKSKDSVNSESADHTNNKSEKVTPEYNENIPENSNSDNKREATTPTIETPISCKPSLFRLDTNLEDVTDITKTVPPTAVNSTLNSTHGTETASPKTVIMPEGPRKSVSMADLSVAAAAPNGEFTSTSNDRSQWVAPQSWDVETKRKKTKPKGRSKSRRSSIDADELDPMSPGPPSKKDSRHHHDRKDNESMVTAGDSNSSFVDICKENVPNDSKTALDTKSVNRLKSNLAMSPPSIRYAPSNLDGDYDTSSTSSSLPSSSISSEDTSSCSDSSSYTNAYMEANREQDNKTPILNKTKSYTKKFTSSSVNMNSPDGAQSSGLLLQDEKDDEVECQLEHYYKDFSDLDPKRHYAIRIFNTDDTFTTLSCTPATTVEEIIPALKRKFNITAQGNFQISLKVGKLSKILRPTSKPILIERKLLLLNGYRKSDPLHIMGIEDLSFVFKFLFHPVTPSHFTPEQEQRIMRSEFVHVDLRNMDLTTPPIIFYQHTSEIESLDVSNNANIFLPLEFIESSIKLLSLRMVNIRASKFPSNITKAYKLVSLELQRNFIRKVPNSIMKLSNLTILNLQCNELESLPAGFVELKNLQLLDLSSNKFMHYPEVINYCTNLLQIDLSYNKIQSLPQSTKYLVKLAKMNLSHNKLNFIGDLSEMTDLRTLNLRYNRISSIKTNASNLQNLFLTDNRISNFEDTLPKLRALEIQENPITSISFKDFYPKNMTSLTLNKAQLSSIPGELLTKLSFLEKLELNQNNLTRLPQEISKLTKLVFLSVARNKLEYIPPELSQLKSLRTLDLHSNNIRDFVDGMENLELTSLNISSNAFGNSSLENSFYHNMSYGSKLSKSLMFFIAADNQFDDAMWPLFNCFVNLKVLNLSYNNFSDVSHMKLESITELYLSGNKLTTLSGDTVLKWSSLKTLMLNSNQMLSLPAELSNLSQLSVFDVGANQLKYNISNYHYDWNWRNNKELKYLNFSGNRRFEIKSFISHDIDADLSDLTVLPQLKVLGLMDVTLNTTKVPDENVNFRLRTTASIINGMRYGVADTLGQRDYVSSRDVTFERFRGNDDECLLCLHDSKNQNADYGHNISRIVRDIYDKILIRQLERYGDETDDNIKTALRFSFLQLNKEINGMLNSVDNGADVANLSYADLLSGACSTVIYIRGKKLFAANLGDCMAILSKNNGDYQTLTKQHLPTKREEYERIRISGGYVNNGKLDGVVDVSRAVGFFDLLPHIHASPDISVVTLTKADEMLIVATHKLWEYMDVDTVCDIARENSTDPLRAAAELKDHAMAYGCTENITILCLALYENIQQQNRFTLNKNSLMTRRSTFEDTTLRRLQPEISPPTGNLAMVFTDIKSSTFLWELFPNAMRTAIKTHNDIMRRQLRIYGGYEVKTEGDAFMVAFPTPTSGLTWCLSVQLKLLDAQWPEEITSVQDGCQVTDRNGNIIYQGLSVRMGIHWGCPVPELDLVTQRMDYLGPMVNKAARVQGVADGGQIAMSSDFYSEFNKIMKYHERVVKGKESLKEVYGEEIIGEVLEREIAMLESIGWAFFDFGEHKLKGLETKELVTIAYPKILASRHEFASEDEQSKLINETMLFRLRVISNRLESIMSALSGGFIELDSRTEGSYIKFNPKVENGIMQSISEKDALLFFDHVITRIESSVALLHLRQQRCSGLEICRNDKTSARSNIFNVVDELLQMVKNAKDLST
From the text: Another Ras-dependent enzymatic assay was used to extend the observed ability of the peptides of the present invention to inhibit Ras function. This system, yeast adenylyl cyclase assay, measures the Ras-dependent conversion of ATP into cyclic AMP (cAMP). […] Furthermore, in S. cerevisiae, regulation of cAMP metabolism appears to be a major function of Ras. This assay system was used to extend the observed Ras inhibitory activity of the peptides of the present invention, to a Ras function which is GAP-unrelated. S. cerevisiae strain FlD lacks functional Ras proteins, however FlD cells have functional adenylyl cyclase in their cell membrane. […] Similarly, a recombinant S. cerevisiae strain MY1186, lacks yeast Ras proteins but expresses mammalian Ras protein which functions with adenylyl cyclase to regulate cAMP metabolisim in the yeast cells. […] In contrast, S. cerevisiae strain JC377-10B contains a mutant form of adenylyl cyclase which constitutively converts ATP into cAMP with or without Ras.
Ras peptides were tested at the indicated concentrations for inhibition of S. cerevisiae adenylyl cyclase activity. […] Ras-independent activity was assayed with membranes from strain JC377-10B (ras-minus, constitutively active adenylyl cyclase).
Yeast strain FlD, MY1186 and JC377-10B, were grown in YEHD medium at 30°C. Membrane fractions were prepared from cultures grown to an A₆₆₀ of 0.5 to 1.0 by glusulase digestion [Casperson, G.F. et al., (1983), J. Biol. Chem., 258, pp. 7911-7914], Dounce homogenization of the spheroplasts in buffer containing 50 mM sodium MES [2(N-morpholino) ethanesulfonic acid] […] Adenylyl cyclase assays (100-µL reaction volume) measured the conversion of [α-³²P]ATP to [³²P]cAMP at 30°C, using 50 µg to 100 µg of membrane protein in assays using membranes from yeast strains MY1186 and JC377-10B.. […] Since these membranes contain adenylyl cyclase, but are lacking Ras protein, stimulation of adenylyl cyclase activity may be measured following reconstitution with purified Ras complexed with GTP. […]

Row | Compound | Maximum Solubility [1] | IC50 (Ras-GAP interaction) | IC50* (Ras-GAP interaction) | %Inhibition of Adenylyl Cyclase Activity Ras Dependent [2]
1 | LTIQLIQNHFVDE [Ras 19-31] | >1000 µM | 48 µM | – | –
2 | LTIQLIQNHFVDEY [Ras 19-32] | 48 µM | 0.4 µM | – | –
3 | NHFVDEY [Ras 26-32] | 800 µM | 350 µM | – | –
4 | CC[C@H](C)[C@H](NC(=O)[C@H](CC(C)C)NC(=O)[C@H](CCC(N)=O)NC(=O)[C@@H](NC(=O)[C@@H](NC(=O)[C@H](CC(C)C)NC(=O)[C@H](C)NC(=O)[C@@H](N)CO)[C@@H](C)O)[C@@H](C)CC)C(=O)N[C@@H](CCC(N)=O)C(=O)N[C@@H](CC(N)=O)C(=O)N[C@@H](Cc1c[nH]cn1)C(=O)N[C@@H](Cc1ccccc1)C(=O)N[C@H](C(=O)N[C@@H](CC(=O)O)C(=O)N[C@@H](CCC(=O)O)C(=O)N[C@@H](Cc1ccc(O)cc1)C(=O)N[C@@H](CC(=O)O)C(=O)N1CCC[C@H]1C(=O)N[C@H](C(=O)N[C@H](C(=O)N[C@@H](CCC(=O)O)C(=O)N[C@@H](CC(=O)O)C(=O)N[C@@H](CO)C(=O)N[C@@H](Cc1ccc(O)cc1)C(=O)N[C@@H](CCCNC(=N)N)C(=O)N[C@@H](CCCCN)C(=O)N[C@@H](CCC(N)=O)C(=O)N[C@H](C(=O)O)C(C)C)[C@@H](C)CC)[C@@H](C)O)C(C)C [Ras 17-44] | 200 µM | 2.4 µM | – | –
5 | MRTRVVSGFVFLRLIGPAILNPR [GAP 888-910(Gly903)] | 800 µM | – | – | –
6 | EYDPTIEDSYRKQ [Ras 31-43] | 446 µM | – | no inhibition | –
7 | TIQLIQNHFVDEY [Ras 20-32] | 110 µM | 18 µM | – | –
8 | N[C@@H](CC(=O)O)C(=O)N[C@@H](CCC(=O)O)C(=O)N[C@@H](Cc1ccc(O)cc1)C(=O)O [Ras 30-32] (H-Asp-Glu-Tyr-OH) | 800 µM | – | no inhibition | –
9 | SALTIQLIQNHFV [Ras 17-29] | 20 µM | – | no inhibition | –
10 | GQEEYSAMRDQYMRTGE [Ras 60-76, reference compound] | – | – | – | 6 ± 1%
11 | EELTIQLIQNHFVDEYD-NH2 [Ras 19-33(3)] | 225 µM | 50 µM | – | –
12 | CC[C@H](C)[C@H](NC(=O)[C@H](CC(C)C)NC(=O)[C@H](CCC(N)=O)NC(=O)[C@@H](NC(=O)[C@@H](NC(=O)[C@H](CC(C)C)NC(=O)[C@H](C)NC(=O)[C@@H](N)CO)[C@@H](C)O)[C@@H](C)CC)C(=O)N[C@@H](CCC(N)=O)C(=O)N[C@@H](CC(N)=O)C(=O)O [Ras 17-26] | 600 µM | – | no inhibition | –
13 | CC[C@H](C)[C@H](NC(=O)[C@H](CC(C)C)NC(=O)[C@H](CCC(N)=O)NC(=O)[C@@H](NC(=O)[C@@H](NC(=O)[C@@H](N)CC(C)C)[C@@H](C)O)[C@@H](C)CC)C(=O)N[C@@H](CCC(N)=O)C(=O)N[C@H](CC(N)=O)C(=O)N[C@@H](Cc1c[nH]cn1)C(=O)N[C@@H](Cc1ccccc1)C(=O)N[C@H](C(=O)N[C@@H](CC(=O)O)C(=O)N[C@@H](CCC(=O)O)C(=O)N[C@@H](Cc1ccc(O)cc1)C(=O)O)C(C)C [Ras 19-32(D-Asn)] (H-LTIQLIQ[dN]HFVDEY-OH) | 12 µM | 0.2 µM | – | –
14 | LTIQLIQNHFVDEYD [Ras 19-33] | 23 µM | 1.4 µM | – | –
15 | IQLIQNHFVDEY [Ras 21-32] | 120 µM | 70 µM | – | –
16 | LTIQIQNHFVDE [Ras 19-31(1)] | >1000 µM | 36 µM | – | –
